Legend:
Experiment in all cases: ATP level assay (CellTiter-Glo), percent of control
Format in all cases: cell-based
HDF (normal cells) = settings: two hour incubation; for activity at 100 µM: 2 h, compound alone, control DMSO, read-out: POC (percent of control) HDF
Excerpt: (§1) In the present method, the method of using the available assays has been modified to measure the short-term effect of compounds of interest on ATP levels in the cells. […] In the modified method, the control and test cells are initially treated with the metabolic inhibitor for a period of about thirty minutes to about four hours. Typically, the treatment of the cells with the metabolic inhibitor is for one hour prior to adding the compound to be screened for anti-cancer properties. However, simultaneous treatment with the metabolic inhibitor and the compound being screened should provide satisfactory results. […] ATP synthesis in cells occurs over multiple biochemical pathways. These pathways are very responsive to metabolic inhibitors and/or changes in available nutrients. By incorporating a metabolic inhibitor which is known to impact certain pathways, the disclosed method provides for measurement of a compound's direct effects on the remaining metabolic pathways available for ATP synthesis in the cell.
(§2) Following treatment of the control and test cells with the metabolic inhibitor, the method calls for addition of the compound to be screened for anti-cancer properties to the cells. Following addition of the compound of interest, the assay is allowed to continue for about one hour to about four hours or depending on the luminescing agent up to eighteen hours. However, approximately 60 minutes will be sufficient to determine the ATP inhibiting effect of the compound to be screened on the cells. Following completion of the selected time period, the ATP level within the cell is determined. ATP levels can be determined by luminescence according to standard measuring procedures, i.e. the luminescence level of the assay from the living cells treated with the two component composition is compared to the luminescence level of the assay from the living cells without the two component composition, i.e., the control experiment. Thus, the ATP levels are determined without killing the cells during the incubation of the cells in the presence of the compound of interest. As a result, the measured reduction in ATP level corresponds directly to the inhibition of the metabolic pathways uninhibited by the metabolic blocker.
(§3) A wide variety of ATP luminescing detection reagents are available commercially. So long as the reagent produces a luminescence in the presence of ATP, the reagent will be suitable for use in the present method. Suitable reagents include but are not limited to any ATP dependent luciferase such as but not limited to firefly luciferase, other modified luciferase based reagents, i.e. luciferase derivatives. According to the rapid method for determining the anti-cancer activity of a compound, a sample of living cells is distributed across a number of testing wells. Typically, 96-well plates are used; however, the number of wells is not critical to the current method. When using a 96-well plate the number of living cells will commonly be about 20,000. The sample wells contain a cell growth medium to promote cell health and growth and an additive to prevent bacterial contamination of the wells. One common example of the cell growth medium is DMEM with 10% FBS as described above. One example of the additive to prevent bacterial contamination is a solution of penicillin G and streptomycin referred to commonly as Pen-Strep. The Pen-Strep solution typically contains 5000 units of penicillin G and 5000 micrograms of streptomycin. Thus, the rapid determination of anti-cancer compounds can be carried out using the following method. • The desired number of cells are distributed in a 96-well plate containing 100 μL DMEM plus 10% FBS with optional Pen-Strep. • After 24 hours, cells are treated with the compound of interest or a 5% solution of dimethyl sulfoxide (DMSO) in water as a control. • The time period for exposure to the compound of interest and the DMSO control will vary depending on the luminescing detection reagent. […]

[1] = tested on: BxPC3 (pancreatic cancer); settings: two hour incubation; for activity at 100 µM: Homo sapiens, BXPC-3, 2 h, compound alone, control DMSO, read-out: POC (percent of control) BxPC3
Excerpt: as §1, §2, §3

NCI-H196 (lung cancer) = settings: two hour incubation; for activity at 100 µM: NCI-H196, 2 h, compound alone, control DMSO, read-out: POC (percent of control) NCI-H196
Excerpt: as §1, §2, §3

[2] = tested on: MCF10A (non-cancerous breast); settings: two hour incubation; for activity at 100 µM: Homo sapiens, MCF-10A, 2 h, compound alone, control DMSO, read-out: POC (percent of control) MCF10A
Excerpt: as §1, §2, §3

H293 (kidney cancer) = settings: two hour incubation; for activity at 100 µM: 2 h, compound alone, control DMSO, read-out: POC (percent of control) H293
Excerpt: as §1, §2, §3

SkBr3 (breast cancer) = settings: two hour incubation; for activity at 100 µM: Homo sapiens, SK-BR-3, 2 h, compound alone, control DMSO, read-out: POC (percent of control) SkBr3
Excerpt: as §1, §2, §3

HeLa (cervical cancer) = settings: two hour incubation; for activity at 100 µM: Homo sapiens, HeLa, 2 h, compound alone, control DMSO, read-out: POC (percent of control) HeLa
Excerpt: as §1, §2, §3

MDA-MB (breast cancer) = settings: two hour incubation; for activity at 100 µM: 2 h, compound alone, control DMSO, read-out: POC (percent of control) MDA-MB
Excerpt: as §1, §2, §3

PC3 (prostate cancer) = settings: two hour incubation; for activity at 100 µM: 2 h, compound alone, control DMSO, read-out: POC (percent of control) PC3
Excerpt: as §1, §2, §3

T47D (breast cancer) = settings: two hour incubation; for activity at 100 µM: Homo sapiens, T47D, 2 h, compound alone, control DMSO, read-out: POC (percent of control) T47D
Excerpt: as §1, §2, §3

MCF7 (breast cancer) = settings: two hour incubation; for activity at 100 µM: Homo sapiens, MCF7, 2 h, compound alone, control DMSO, read-out: POC (percent of control) MCF7
Excerpt: as §1, §2, §3

[3] = compound 100 uM + 2DG (about 10-20 mM)
[4] = compound 100 uM + rotenone (approximately 1.25 μM)

| Compound | activity at 100 µM (HDF (normal cells)) | POC (percent of control) HDF (HDF (normal cells); [3]) | POC (percent of control) HDF (HDF (normal cells); [4]) | activity at 100 µM [1] | POC (percent of control) BxPC3 [1, 4] | activity at 100 µM (NCI-H196 (lung cancer)) | POC (percent of control) NCI-H196 (NCI-H196 (lung cancer); [3]) | POC (percent of control) NCI-H196 (NCI-H196 (lung cancer); [4]) | activity at 100 µM [2] | POC (percent of control) MCF10A [2, 3] | POC (percent of control) MCF10A [2, 4] | activity at 100 µM (H293 (kidney cancer)) | POC (percent of control) H293 (H293 (kidney cancer); [3]) | POC (percent of control) H293 (H293 (kidney cancer); [4]) | activity at 100 µM (SkBr3 (breast cancer)) | POC (percent of control) SkBr3 (SkBr3 (breast cancer); [3]) | POC (percent of control) SkBr3 (SkBr3 (breast cancer); [4]) | activity at 100 µM (HeLa (cervical cancer)) | POC (percent of control) HeLa (HeLa (cervical cancer); [3]) | POC (percent of control) HeLa (HeLa (cervical cancer); [4]) | also measured |
| --- | --- | --- | --- | --- | --- | --- | --- | --- | --- | --- | --- | --- | --- | --- | --- | --- | --- | --- | --- | --- | --- |
| Cc1cccc2[nH]cc(CNS(=O)(=O)c3ccccc3)c12 [Compound 7, N-[(4-methyl-1H-indol-3-yl)methyl]benzenesulfonamide] | 87.7% | 60.8% of control | 77.9% of control | 86.3% | 79.1% of control | 84.9% | 70.1% of control | 77.7% of control | 66% | 64.5% of control | 97.9% of control | 93.2% | 60.9% of control | 65.3% of control | 108% | 76.2% of control | 88.2% of control | 91% | 70.6% of control | 79.5% of control | POC (percent of control) BxPC3 [1, 3]: 60.9% of control; activity at 100 µM (MDA-MB (breast cancer)): 85.6%; POC (percent of control) MDA-MB (MDA-MB (breast cancer); [3]): 81.2% of control; POC (percent of control) MDA-MB (MDA-MB (breast cancer); [4]): 102.4% of control; activity at 100 µM (PC3 (prostate cancer)): 95%; POC (percent of control) PC3 (PC3 (prostate cancer); [3]): 59.4% of control; POC (percent of control) PC3 (PC3 (prostate cancer); [4]): 82% of control; activity at 100 µM (T47D (breast cancer)): 46.5%; POC (percent of control) T47D (T47D (breast cancer); [3]): 40.1% of control; POC (percent of control) T47D (T47D (breast cancer); [4]): 66% of control; activity at 100 µM (MCF7 (breast cancer)): 107%; POC (percent of control) MCF7 (MCF7 (breast cancer); [3]): 91.6% of control; POC (percent of control) MCF7 (MCF7 (breast cancer); [4]): 75.9% of control |
| O=S(=O)(NCc1cncnc1)c1ccc(Cl)cc1 [Compound 14, 4-chloro-N-(pyrimidin-5-ylmethyl)benzenesulfonamide] | 96.1% | 96.3% of control | 90.9% of control | 93.8% | 60.9% of control | 86.9% | 107.3% of control | 109% of control | 103% | 119.1% of control | 94.3% of control | 84.9% | 82.1% of control | 82.4% of control | 107% | 96.9% of control | 98.3% of control | 98.3% | 106.4% of control | 102.1% of control | POC (percent of control) BxPC3 [1, 3]: 95.4% of control; activity at 100 µM (MDA-MB (breast cancer)): 105%; POC (percent of control) MDA-MB (MDA-MB (breast cancer); [3]): 86% of control; POC (percent of control) MDA-MB (MDA-MB (breast cancer); [4]): 87.5% of control; activity at 100 µM (PC3 (prostate cancer)): 111%; POC (percent of control) PC3 (PC3 (prostate cancer); [3]): 101.7% of control; POC (percent of control) PC3 (PC3 (prostate cancer); [4]): 101.7% of control; activity at 100 µM (T47D (breast cancer)): 86.7%; POC (percent of control) T47D (T47D (breast cancer); [3]): 106.4% of control; POC (percent of control) T47D (T47D (breast cancer); [4]): 114.8% of control; activity at 100 µM (MCF7 (breast cancer)): 126%; POC (percent of control) MCF7 (MCF7 (breast cancer); [3]): 109.8% of control; POC (percent of control) MCF7 (MCF7 (breast cancer); [4]): 94.4% of control |
| Cc1ccc(S(=O)(=O)NCc2c[nH]c3ccccc23)cc1 [Compound 1, N-[(1H-indol-3-yl)methyl]-4-methylbenzenesulfonamide] | 98.5% | 85% of control | 107.7% of control | 97.1% | 86.6% of control | 90.8% | 68.8% of control | 83.2% of control | 73.3% | 86.7% of control | 69% of control | 92.8% | 48.2% of control | 69% of control | 97.7% | 72.9% of control | 91.2% of control | 95% | 66.3% of control | 78.7% of control | activity at 100 µM (MDA-MB (breast cancer)): 78.1%; POC (percent of control) MDA-MB (MDA-MB (breast cancer); [3]): 62% of control; POC (percent of control) MDA-MB (MDA-MB (breast cancer); [4]): 80.5% of control; activity at 100 µM (PC3 (prostate cancer)): 91.7%; POC (percent of control) PC3 (PC3 (prostate cancer); [3]): 57.3% of control; POC (percent of control) PC3 (PC3 (prostate cancer); [4]): 72.6% of control; activity at 100 µM (T47D (breast cancer)): 53.2%; POC (percent of control) T47D (T47D (breast cancer); [3]): 43.2% of control; POC (percent of control) T47D (T47D (breast cancer); [4]): 76.6% of control; activity at 100 µM (MCF7 (breast cancer)): 103%; POC (percent of control) MCF7 (MCF7 (breast cancer); [3]): 86.8% of control; POC (percent of control) MCF7 (MCF7 (breast cancer); [4]): 79.6% of control |

Reference: US20230266302A1, “SYNTHESIS AND USE OF N-BENZYL SULFONAMIDES” (THE UNIVERSITY OF TULSA, priority 2020, published 2023)
